Results as given in patent publication US5128051A, “Method for the control of biofouling” (Union Carbide Chemicals & Plastics Technology Corporation, priority 1991, dated 1992).
Read-outs that look alike come from different tables or passages of the source.

Legend:
[1] = system: P. vulg.; conditions: planktonic; cited from earlier work
[2] = system: P. aerug.; conditions: planktonic; cited from earlier work
[3] = system: K. pneum.; conditions: planktonic; cited from earlier work
[4] = system: Aerobic Bacterial Biofilms; test: Log reduction of sessile microorganisms in aerobic biofilm (Example 2, Procedure A); format: cell-based, predominantly Pseudomonas species; conditions: Pseudomonas, 7.4 represents complete kill
Procedure: (§1) Approximately 20 ml of sterile Bacto TGE broth (Difco Labs) were placed in a sterile Petri dish (15×100 mm). To this media, 10 ml of a 24 hour culture of the aerobic organisms to be tested were added. Sterile, stainless steel penicylinders (10 mm O.D., 7 mm I.D., 10 mm long) were then placed in the inoculated media. The cylinders were placed in the dish either on-end or on-side. The Petri dish containing the cylinders was then incubated at 37° C. for 48 hours. At that time, cylinders were individually removed aseptically using forceps, blotted on sterile filter paper, and washed three times by dipping in sterile saline solution. This procedure was used to ensure that only organisms that were firmly attached in the biofilm were tested.
(§2) Two biofilm-coated cylinders were then carefully dropped into separate 10 ml test tubes containing biocide solutions of varying concentrations. After one hour and four hour contact times, a cylinder was aseptically transferred to a fresh tube of TGE broth and vortexed for 30 seconds to remove all sessile organisms. The resulting broth suspension was then serially diluted and plated using TGE agar for enumeration. Plates were incubated for 48 hours at 37° C. before counting.
(§3) To minimize error, all biocide concentration/contact time points reported below were tested in duplicate and the results averaged. Results are reported as log reduction of microorganisms compared to control cylinders treated in the same manner except that no biocide was employed.
Respective samples of the five compounds were tested against the sessile microorganisms embedded in biofilms. The biofilm was comprised of a variety of microorganisms, but contained predominantly Pseudomonas species cultivated using Procedure A. The number of organisms were counted after one hour and four hours of contact.

[5] = system: C. albic.; conditions: planktonic; cited from earlier work
[6] = system: S. aureus; conditions: planktonic; cited from earlier work
[7] = system: Aerobic Bacterial Biofilms (oil field isolate); test: Log reduction of sessile aerobic bacteria in biofilm on stainless steel penicylinders (Example 1, Procedure A); format: cell-based, predominantly Pseudomonas species; conditions: Pseudomonas
Procedure: as §1, §2, §3
An oil field isolate of aerobic bacteria was utilized in all aerobic biofilm experiments. This culture was taken from a water-flooded oil well in Texas and was tentatively identified as containing predominantly Pseudomonas species. The biofilms were developed following above Procedure A. Respective samples were treated with various concentrations of the biocides listed below and the number of bacteria were counted after one hour and four hours of contact.

[8] = system: sessile microorganisms; conditions: Pope et al.; cited from earlier work
[9] = system: Sessile Anaerobic Bacterial Biofilms (SRB); test: Log reduction of sessile sulfate-reducing bacteria in biofilm on mild steel penicylinders (Example 3, Procedure B); format: cell-based; conditions: for log reduction at 100 ppm / log reduction at 250 ppm: 4 represents complete kill
Procedure: SRB-containing media were prepared as follows:
14.5 g of Bacto Sulfate API Broth (Difco Labs) and 2.0 g Bacto Agar (Difco Labs) were added to 1000 ml distilled water. The solution was heated and stirred until all components were dissolved. A 1% solution of sodium thioglycollate in distilled water was also prepared. Both solutions were then autoclaved at 121° C. for 30 minutes. After cooling, 5 g of the sodium thioglycollate solution was added to the media mixture.
Mild steel penicylinders (10 mm O.D., 7 mm I.D., 10 mm long) were cleaned by soaking for 10 minutes in 0.5% hydrochloric acid. Cylinders were then rinsed three times with distilled water and dried before use.
A 4 oz screw-capped bottle was purged with argon to remove oxygen, capped and then autoclaved. After cooling, 100 ml of sterile SRB media was added to this bottle. Cleaned penicylinders were then added along with 10 ml of a five day old SRB culture. All operations were conducted under a constant stream of argon to minimize oxygen levels. The bottle was then incubated for 7-14 days (depending on the SRB used) at 37° C. At that time, cylinders were individually removed aseptically using forceps and blotted on sterile filter paper.
Two biofilm-coated cylinders were then carefully dropped into separate 10 ml test tubes of deaerated biocide solutions of varying concentrations. All of the biocide and control solutions contained 30 ppm of a non-ionic nonyl phenol ethoxylate surfactant (TERGITOL® NP-4, Union Carbide Chemicals and Plastics Company Inc., Danbury, CT). After one hour and four hour contact times, a cylinder was removed, blotted on sterile filter paper, and placed into a commercially available SRB vial (C&S Laboratories, Tulsa, OK). The vial was then sonicated (Bransonic Model 12) for 30 seconds to remove sessile organisms. The resulting solution was serially diluted into additional SRB vials for enumeration. Vials were grown for 28 days at 37° C. before reading. Blackening of the vials was used as an indication of growth.
as §3
A SRB culture was obtained from a water-flooded oil well in Alaska. The bacteria were then cultivated on the walls of the steel penicylinders using Procedure B described above. Respective samples were then contacted with glutaraldehyde, formaldehyde or OPA for one and four hours with the following results: […]

[10] = 1 hr contact, read-out: log reduction after 1 hr
[11] = 4 hr contact, read-out: log reduction after 4 hr
[12] = 1 h, read-out: log reduction after 1 hr
[13] = 4 h, read-out: log reduction after 4 hr

SMILES	MIC [1]	MIC [2]	MIC [3]	log reduction at 50 ppm [4, 10]	log reduction at 50 ppm [4, 11]	log reduction at 100 ppm [4, 10]	log reduction at 100 ppm [4, 11]	log reduction at 200 ppm [4, 10]	log reduction at 200 ppm [4, 11]	MIC [5]	MIC [6]	further results
O=Cc1ccccc1C(=O)O [CB, 2-carboxybenzaldehyde]	1.0 mMole %	2.5 mMole %	2.5 mMole %	0	0	0	0.1	0.6	0.5	1.0 mMole %	0.5 mMole %	
O=Cc1cccc(O)c1O [DHB, 2,3-dihydroxybenzaldehyde]	0.25 mMole %	0.25 mMole %	0.05 mMole %	0	0	0.5	0	1.1	0.2	< 0.025 mMole %	0.25 mMole %	
C=O [FA, formaldehyde]												log reduction at 250 ppm [7, 12]: 2; log reduction at 500 ppm [7, 12]: 2.6; log reduction at 1000 ppm [7, 12]: 5.1; log reduction at 250 ppm [7, 13]: 5.1; log reduction at 500 ppm [7, 13]: 5.1; log reduction at 1000 ppm [7, 13]: 5.1; performance in tests [8]: performed well in one test but poorly in another test; log reduction at 100 ppm [9, 10]: < 2; log reduction at 100 ppm [9, 11]: < 2; log reduction at 250 ppm [9, 10]: < 2; log reduction at 250 ppm [9, 11]: 3; concentration required to achieve the same level of effectiveness as OPA ([9]; SRB biofilm, compared with OPA 10 ppm, 4 hours): Significantly higher concentrations
